The values that follow come from patent EP3246029A1, “PHARMACEUTICAL COMBINATION OF NINTEDANIB AND CAPECITABINE FOR THE TREATMENT OF COLORECTAL CANCER” (BOEHRINGER INGELHEIM INTERNATIONAL GMBH, priority 2016, dated 2017).

The structures appear in SMILES notation.

One data set has as its system HT-29. Briefly: in vivo anti-tumor efficacy, HT-29 xenograft model. The conditions noted are these: Colorectal, HT-29, 100mg/kg/d.
The test system of the next data set is Caki-1. As to the kind of experiment: in vivo anti-tumor efficacy, Caki-1 xenograft model. The conditions noted are these: Renal, Caki-1, 100mg/kg/d.
In another data set the test system is GS-9L. Briefly: in vivo anti-tumor efficacy, GS-9L syngeneic rat tumor model. The conditions noted are these: Glioblastoma, 50mg/kg/d.
For another data set, the system named is Calu-6. Briefly: in vivo anti-tumor efficacy, Calu-6 xenograft model. Particulars: Lung (non-small-cell), Calu-6, 50mg/kg/d.
For another data set, the system named is NCI-H460. As to the kind of experiment: in vivo anti-tumor efficacy, NCI-H460 xenograft model. The conditions noted are these: Lung (non-small-cell), NCI-H460, 25mg/kg/d.
Another data set relates to HT-29 large tumors. As to the kind of experiment: in vivo anti-tumor efficacy, HT-29 large tumors xenograft model. The conditions noted are these: Colorectal.
For a further data set, the system named is Rip-Tag. Briefly: in vivo anti-tumor efficacy, Rip-Tag murine transgenic pancreas model.
The subject of the next data set is FaDu. Briefly: in vivo anti-tumor efficacy, FaDu xenograft model. The conditions noted are these: Head and neck, 100mg/kg/d.
In data set [1] the test system is HT-29 xenografts (human CRC tumor cell line). Briefly: in vivo tumor xenograft experiment, subcutaneous HT-29 xenografts (Example A). The conditions noted are these: nude mice, suboptimal doses, 28 days of treatment. The protocol:
In order to analyse the anti-tumor effects of combining the inhibition of tumor angiogenesis by interfering with the VEGFR, FGFR and PDGFR signalling cascades with the established anti-proliferative treatment modality of capecitabine (Xeloda®) in a xenograft model of CRC the following in vivo experiment is performed. Nude mice carrying established subcutaneous HT-29 xenografts (human CRC tumor cell line) are randomized and treated with either nintedanib or capecitabine alone or with the combination of both drugs. After 28 days of treatment the tumors on the control treated mice reach the endpoint and are in average […] in volume. […] TGI = (1−(Xtreated,final−Xtreated,day1)/(Xcontrol,final−Xcontrol,day1))*100% [formula] where X = mean tumor weigh, final is day 28
The weight gain of the mice in the treatment groups in comparison to the weight of the control mice is reduced, but nevertheless well tolerated.

Another data set has as its system SKOV3. Briefly: in vivo anti-tumor efficacy, SKOV3 xenograft model. The conditions noted are these: Ovarian, SKOV3, 50mg/kg/d.
For a further data set, the system named is PAC-120. Briefly: in vivo anti-tumor efficacy, PAC-120 xenograft model. Particulars: Prostate (hormone-dependent), PAC-120, 100mg/kg/d.
For data set [2] the following is noted: in adults; cited from earlier work.

Broadly, the AUC is concentration integrated over time. In general, Cmax refers to the highest concentration seen after dosing.

`COC(=O)c1ccc2c(c1)NC(=O)/C2=C(\Nc1ccc(N(C)C(=O)CN2CCN(C)CC2)cc1)c1ccccc1` [nintedanib, 3-Z-[1-(4-(N-((4-methyl-piperazin-1-yl)-methylcarbonyl)-N-methyl-amino)-anilino)-1-phenyl-methylene]-6-methoxycarbonyl-2-indolinone]: the T/C result in the data set on HT-29 is given as “T/C 16% @ 100mg/kg/d”; with Caki-1, “T/C 13% @ 100mg/kg/d”; in the data set with GS-9L it was “T/C 32% @ 50mg/kg/d”; in the data set with Calu-6, “T/C 24% @ 50mg/kg/d”; in the data set on NCI-H460, “T/C 54% @ 25mg/kg/d”; with FaDu, “T/C 11% @ 100mg/kg/d”. The T/C result in the data set with SKOV3 was “T/C 19% @ 50mg/kg/d”; in the data set on PAC-120 it was “T/C 34% @ 100mg/kg/d”. For the same compound, the Efficacy result with HT-29 large tumors is given as “tumor volume reduction”; with Rip-Tag it was “interference with tumor formation”. Besides, the TGI value in data set [1] stood at 35%.
As to `CCCCCOC(=O)Nc1nc(=O)n([C@@H]2O[C@H](C)[C@@H](O)[C@H]2O)cc1F` [capecitabine, 5'-deoxy-5-fluoro-N-[(pentyloxy)carbonyl]-cytidine], in data set [2], the AUC is 5960 ng·h/mL, the Cmax was 3900 ng/mL and the bioavailability entry is “≈ 100%”. In data set [1], the TGI value is 50%.
